Assay results published in PMC7381267, “A Bromodomain-Containing Protein 4 (BRD4) Inhibitor Suppresses Angiogenesis by Regulating AP-1 Expression” (Frontiers in Pharmacology, 2020).
Where two headings read alike, the source gives them in different places.

Columns and labels:
HUVECs [1] = test: Tube formation assay; details: 8.5 μM, 48 h pretreatment, then 5 h on Matrigel
Protocol: The circumference of the formed tubes was measured under an inverted light microscope.

[2] = test system: c-jun and c-fos (AP-1) in HUVECs; test: Immunoblot of AP-1 components; type: cell-based, human; details: 48 h
Protocol: Then, the proteins of these cells were extracted using RIPA buffer and separated by 10% (w/v) sodium dodecyl sulphate-polyacrylamide gel electrophoresis (SDS-PAGE). The separated proteins were transferred onto a polyvinylidene fluoride (PVDF) membrane (Millipore, MA, USA) and blocked using 5% (w/v) non-fat powder milk at room temperature. Next, the membranes were incubated in the relative primary antibody and horseradish peroxidase (HRP)-conjugated secondary antibodies. Then, the Image Quant LAS 4000 system (GE Healthcare, Waukesha, WI, USA) was used for the direct visualization of the membranes. The protein bands were densitometrically quantified using Quantity-One protein analysis software (Bio-Rad Laboratories, Hercules, CA, USA). The relative expression of the proteins was normalized to the expression of glyceraldehyde-3-phosphate dehydrogenase (GAPDH).
[…]. […] […].

HUVECs [3] = test: Cell viability by CCK-8 assay; type: cell-based, human; details: for Cell viability compared with DMSO or (−)-JQ1: 8.5 μM, 96 h; for IC50: Homo sapiens, HUVEC, read-out: 50% inhibition concentration of cell viability
Protocol: Cell viability after BET family member inhibitor treatment was evaluated by CCK-8 assay. HUVECs were seeded in 96-well plates at a density of 2,000 cells/well. Twenty-four hours later, the BET family member inhibitors, (−)-JQ1 (negative control drug) and DMSO (solvent group) were added at the indicated concentrations. […] The absorbance was evaluated at 450 nm to determine cell viability.
Furthermore, (−)-JQ1 was employed as a negative control, and DMSO was employed as a solvent control. […].

chick embryo YSM vessels = test: Chick embryo yolk sac membrane (YSM) anti-angiogenesis assay; type: in vivo; details: 100 μM, 24 h; for Blood vessel density and number of blood vessels compared with DMSO: YSM of 3-day-old chick embryos
Protocol: On the third day of incubation, the well-developed live chicken embryos were carefully transferred into sterilized dishes, and the chick embryo vessels were arranged to face upward. Color marked silastic rings were symmetrically placed onto the top of the vessel regions of the yolk sac membrane and incubated for 3 h in the incubator. Then, 100 μM BET family member inhibitors or DMSO (dissolved in 30 µl of PBS, pH 7.4) was added into the center of the rings and cultured in the incubator for 24 h. Images of the vessels in the silastic rings were captured at 0 and 24 h, respectively. The images were quantitatively analyzed by Image-Pro Plus 6.0, and then the number of blood vessels 24 h after drug treatment and the MVD at 0 and 24 h were quantified using IPP 6.0. The growth rate in the DMSO-treated silica gel circle was considered to be one.

[4] = test system: chick embryo CAM vasculature; test: Chick embryo chorioallantoic membrane (CAM) anti-angiogenesis assay; type: in vivo; details: 48 h; for Inhibitory effect on microvessel density (MVD) / Inhibitory effect on MVD compared with (+)-JQ1 / Positive Ratio: 50 μg/ml; for Inhibitory effect on microvessel density (MVD) / Inhibition of MVD compared to DMSO / Inhibitory effect on MVD compared with (+)-JQ1 / Inhibitory efficacy on MVD compared with (+)-JQ1: CAM; for Inhibitory effect on microvessel density (MVD) / Inhibitory effect on MVD compared with (+)-JQ1: Figure 1C; for Inhibition of MVD compared to DMSO: 25, 50 and 100 μM, Figure 2F; for Anti-angiogenic activity, egg number 1: egg 1; for Anti-angiogenic activity, egg number 3: egg 3; for Anti-angiogenic activity, egg number 5: egg 5; for Inhibitory efficacy on MVD compared with (+)-JQ1: at each of 25, 50 and 100 μM; for Positive Ratio: embryos with ++ and +++ compared with total number of embryos; for Anti-angiogenic activity, egg number 2: egg 2; for Anti-angiogenic activity, egg number 4: egg 4
Protocol: Fertilized white leghorn chicken eggs were obtained from the Avian Farm of South China Agriculture University (Guangzhou, China) and the shells were cleaned with 1% geramine. […] A small window (10 × 10 mm^2) was cut above the air chamber of egg while the chick embryo was growing through the ninth day. BET family member inhibitors or DMSO (dissolved in 30 µl of phosphate-buffered saline [PBS, pH 7.4]) were placed directly onto the live chick embryo CAM through the window at the indicated concentrations and incubated for 48 h. Then, the eggshells were cut carefully along the axis of the median line, and the content was discarded. The CAM vasculature around the eggshell windows was observed and photographed under a stereomicroscope (Olympus SZX16). The microvessel density (MVD) was calculated as the percentage of blood vessel area in the total drug-treated area using the Image-Pro Plus 6.0 software (IPP 6.0, Media Cybernetics, Inc., Rockville MD, USA).
The effects of all these selected compounds on angiogenesis were first determined through use of the chick embryo CAM model. […] Each of the compounds (50 μg/ml) was added to the CAM of 9-day-old chick embryos for 48 h. The CAMs of chick embryos were photographed, and the inhibition ratio indicating angiogenesis was calculated and analyzed. […] An inhibitory effect observable but not obvious on the generation of third-grade vessels was indicated by “+”; an obvious medium-level inhibitory effect on secondary vessels was indicated by “++”; and an obvious potent inhibitory effect on primary blood vessels was indicated by “+++”.

BRD2 BD2 = molecular target: T1, BRD2 BD2 (Homo sapiens, UniProt P25440); test: TR-FRET assay, BRD2 BD2; type: binding
T1 construct: purchased Cayman Chemical
T1 sequence (P25440 344-453 limits assumed): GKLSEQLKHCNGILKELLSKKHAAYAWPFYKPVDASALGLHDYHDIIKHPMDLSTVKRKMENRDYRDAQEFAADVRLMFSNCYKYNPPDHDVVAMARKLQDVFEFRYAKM
Protocol: (§1) The specificity of the designed and synthesized compounds for BRD4 was also evaluated through comparison with those for BRD2.
(§2) As acetylated histone peptides are known substrates for bromodomain-containing proteins, we initially screened the complexes for their ability to modulate the protein–protein interaction between acetylated lysine and BET family members. […] Then, the IC50 of the compounds that prevent BRD4 (BD1 or BD2)/BRD2 (BD1 or BD2) and acetylated histone interactions was calculated by TR-FRET assay in vitro.

BRD2 BD1 = molecular target: T2, BRD2 BD1 (Homo sapiens, UniProt P25440); test: TR-FRET assay, BRD2 BD1; type: binding
T2 construct: purchased Cayman Chemical
T2 sequence (P25440 74-180 limits assumed): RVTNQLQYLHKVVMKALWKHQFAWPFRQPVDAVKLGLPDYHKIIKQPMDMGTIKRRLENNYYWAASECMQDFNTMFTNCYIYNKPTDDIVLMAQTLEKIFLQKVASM
Protocol: as §1, §2

H3K122Ac = test system: H3K122Ac; design: method as in Liu et al., 2020; details: ref Liu et al., 2020; cited from earlier work
BRD4 BD1 = molecular target: T3, BRD4 BD1 (Homo sapiens, UniProt O60885); test: TR-FRET assay, BRD4 BD1; type: binding
T3 construct: purchased Cayman Chemical
Protocol: as §1, §2

BRD4 BD2 = molecular target: T4, BRD4 BD2 (Homo sapiens, UniProt O60885); test: TR-FRET assay, BRD4 BD2; type: binding
T4 construct: purchased Cayman Chemical
Protocol: as §1, §2

[5] = 50 μg/ml on CAM of 9-day-old chick embryos

Compound: Cc1sc2c(c1C)C(c1ccc(Cl)cc1)=N[C@@H](CC(=O)OC(C)(C)C)c1nnc(C)n1-2 [(+)-JQ1 (1), reference compound]
- Tube formation (tube circumference) compared with DMSO (HUVECs [1]): reduction in tube circumference
- Expression of c-jun compared with DMSO [2]: significantly inhibited the expression of c-jun
- Phosphorylation of c-jun and c-fos compared with DMSO [2]: significantly inhibited
- Cell viability compared with DMSO or (−)-JQ1 (HUVECs [3]; HUVECs): significantly suppressed cell viability
- IC50 (HUVECs [3]): 5000 nM
- Blood vessel density and number of blood vessels compared with DMSO (chick embryo YSM vessels): significantly reduced
- Inhibitory effect on microvessel density (MVD) [4]: most impressive inhibitory effect on MVD
- Inhibition of MVD compared to DMSO [4]: significantly inhibited MVD in a concentration-dependent manner

Compound: COc1cc(OC)c2c(=O)cc(-c3ccc(OCC(O)CN4CCCCC4)cc3)oc2c1 (stereo not drawn) [HJC5100(16)]
- Anti-angiogenic activity, egg number 1 [4, 5]: +
- Anti-angiogenic activity, egg number 3 [4, 5]: +

Compound: Cc1cc(/N=N/c2ccc(S(=O)(=O)Nc3ccccn3)cc2)c(N)cc1O [MS436 (3), reference compound]
- IC50 (BRD2 BD2): 846 nM
- IC50 (BRD2 BD1): 797 nM
- Anti-angiogenic activity, egg number 5 [4, 5]: +
- Inhibitory effect on MVD compared with (+)-JQ1 [4]: better than that of the (+)-JQ1 positive control
- Inhibitory effect on microvessel density (MVD) [4]: most impressive inhibitory effect on MVD
- Inhibition of MVD compared to DMSO [4]: significantly inhibited MVD in a concentration-dependent manner
- Inhibitory efficacy on MVD compared with (+)-JQ1 [4]: stronger inhibitory efficacy than (+)-JQ1

Compound: CC(C)(C)c1cc(-c2nnc(-c3cc(F)c(F)c(F)c3)o2)no1 [ZL0164(4)]
- Anti-angiogenic activity, egg number 5 [4, 5]: +
- Positive Ratio [4]: 2/5

Compound: Cc1cc(N=Nc2ccc(S(=O)(=O)N3CCCC3)cc2)c(N)cc1O [ZL0452(5)]
- Anti-angiogenic activity, egg number 2 [4, 5]: +
- Anti-angiogenic activity, egg number 4 [4, 5]: +
- Positive Ratio [4]: 1/4

Compound: Cc1cc(N=Nc2ccc(S(=O)(=O)NC3CCCC3)cc2)cc(C)c1O [ZL0453(6)]
- Anti-angiogenic activity, egg number 1 [4, 5]: +
- Anti-angiogenic activity, egg number 4 [4, 5]: +
- Anti-angiogenic activity, egg number 5 [4, 5]: +
- Positive Ratio [4]: 1/5

Compound: Cc1cc(/N=N/c2ccc(S(=O)(=O)NC3CCCC3)cc2)c(N)cc1O [ZL0454 (2)]
- Anti-angiogenic activity, egg number 5 [4, 5]: +
- Inhibitory effect on microvessel density (MVD) [4]: most impressive inhibitory effect on MVD
- Inhibition of MVD compared to DMSO [4]: significantly inhibited MVD in a concentration-dependent manner
- Inhibitory efficacy on MVD compared with (+)-JQ1 [4]: stronger inhibitory efficacy than (+)-JQ1

Compound: COc1cc(OC)c2c(=O)cc(-c3cc(C)c(OC[C@H](O)CN4CCCCC4)c(C)c3)oc2c1 [ZL0513 (7)]
- Tube formation (tube circumference) compared with DMSO (HUVECs [1]): reduction in tube circumference
- Effect on poly(I:C)-induced H3K122Ac (H3K122Ac): block poly(I:C)-induced H3K122Ac
- Selectivity window to BRD4 over BRD2 (BRD4 BD1; BRD4 versus BRD2): 10 fold
- IC50 (BRD4 BD1; TR-FRET): 67 nM
- IC50 (BRD2 BD2): 845 nM
- Expression of c-jun compared with DMSO [2]: significantly inhibited the expression of c-jun
- Phosphorylation of c-jun and c-fos compared with DMSO [2]: significantly inhibited
- IC50 (BRD2 BD1): 791 nM
- Cell viability compared with DMSO or (−)-JQ1 (HUVECs [3]; HUVECs): significantly suppressed cell viability
- IC50 (HUVECs [3]; HUVECs, CCK-8, concentration range 0.3 to 15 μM): 8500 nM
- Inhibition efficacy on angiogenesis in YSM compared with (+)-JQ1 (chick embryo YSM vessels): significantly higher than that of (+)-JQ1 (1) treatment
- Blood vessel density and number of blood vessels compared with DMSO (chick embryo YSM vessels): significantly reduced
- Anti-angiogenic activity, egg number 4 [4, 5]: +
- Inhibitory effect on MVD compared with (+)-JQ1 [4]: better than that of the (+)-JQ1 positive control
- Inhibitory effect on microvessel density (MVD) [4]: most impressive inhibitory effect on MVD
- Positive Ratio [4]: 4/5
- Inhibition of MVD compared to DMSO [4]: significantly inhibited MVD in a concentration-dependent manner
- Inhibitory efficacy on MVD compared with (+)-JQ1 [4]: stronger inhibitory efficacy than (+)-JQ1
- IC50 (BRD4 BD2): 684 nM

Compound: Cc1cc(N=Nc2ccc3c(c2)CCC(=O)N3)c(N)cc1O [ZL0518(8)]
- Anti-angiogenic activity, egg number 6 ([4]; 50 μg/ml on CAM of 9-day-old chick embryos, egg 6): +
- Positive Ratio [4]: 1/3

Compound: COc1cc(OC)c2c(=O)cc(-c3ccc(OCC4CO4)cc3)oc2c1 (stereo not drawn) [ZL0519 (9)]
- Positive Ratio [4]: 3/4

Compound: COC(=O)C1CCCN1S(=O)(=O)c1ccc(NC(=O)c2ccc(C(F)(F)F)cc2)cc1 (stereo not drawn) [ZL0520(10)]
- Anti-angiogenic activity, egg number 1 [4, 5]: +
- Anti-angiogenic activity, egg number 4 [4, 5]: +
- Positive Ratio [4]: 1/5

Compound: Cc1ccc(S(=O)(=O)OC[C@@H]2CCCN2S(=O)(=O)c2ccc(NC(=O)Nc3ccc(C(F)(F)F)cc3)cc2)cc1 [ZL0586(12)]
- Anti-angiogenic activity, egg number 2 [4, 5]: +
- Anti-angiogenic activity, egg number 3 [4, 5]: +
- Anti-angiogenic activity, egg number 5 [4, 5]: +
- Positive Ratio [4]: 2/5

Compound: O=C(Nc1ccc(C(F)(F)F)cc1)N1CCN(c2ccc(O)cc2)CC1 [ZL0589(14)]
- Anti-angiogenic activity, egg number 5 [4, 5]: +
- Positive Ratio [4]: 2/5

Compound: N#CC(=NNc1ccc2c(c1)CCC(=O)N2)C(=O)c1ccc(OC(F)(F)F)cc1 [ZL0593(15)]
- Anti-angiogenic activity, egg number 3 [4, 5]: +
- Positive Ratio [4]: 3/5
